ChEMBL document CHEMBL4118215, “Design and synthesis of functionalized piperazin-1yl-(E)-stilbenes as inhibitors of 17α-hydroxylase-C17,20-lyase (Cyp17)” (Bioorg Med Chem Lett, 2018)
One block for each compound: values may come before it.

Experiments:
[1] = target: T1, Steroid 17-alpha-hydroxylase/17,20 lyase (Homo sapiens, UniProt P05093); assay: Inhibition of recombinant CYP17 (unknown origin) expressed in human AD293 cells using [21-3H]17alpha-hydroxypregnenolone as substrate preincubated for 60 mins followed by substrate addition measured after 4 hrs Topcount method; type: cell-based
T1 sequence (P05093 whole entry): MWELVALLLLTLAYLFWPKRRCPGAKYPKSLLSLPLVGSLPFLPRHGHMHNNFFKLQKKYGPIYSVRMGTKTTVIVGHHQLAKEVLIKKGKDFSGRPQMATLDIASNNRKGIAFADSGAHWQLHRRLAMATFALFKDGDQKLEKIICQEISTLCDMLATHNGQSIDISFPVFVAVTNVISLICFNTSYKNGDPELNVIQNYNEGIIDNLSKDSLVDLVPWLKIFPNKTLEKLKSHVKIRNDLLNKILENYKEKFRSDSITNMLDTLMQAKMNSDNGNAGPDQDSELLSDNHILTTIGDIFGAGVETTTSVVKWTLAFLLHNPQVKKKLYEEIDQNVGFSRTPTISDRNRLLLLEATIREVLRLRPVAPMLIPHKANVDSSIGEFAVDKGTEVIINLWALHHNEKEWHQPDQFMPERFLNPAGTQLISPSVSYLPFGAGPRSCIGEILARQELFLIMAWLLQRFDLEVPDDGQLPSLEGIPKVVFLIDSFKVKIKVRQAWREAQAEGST

[2] = Half-life in guinea pig liver microsomes in presence of NADPH regenerating system by LC/MS/MS method; type: ADME, Cavia porcellus, microsome
Homo sapiens [3] = organism: Homo sapiens; assay: Selectivity index, ratio of IC50 for human CYP3A4 to IC50 for recombinant CYP17 (unknown origin)
Homo sapiens [4] = organism: Homo sapiens; assay: Selectivity index, ratio of IC50 for CYP19 (unknown origin) to IC50 for recombinant CYP17 (unknown origin)
[5] = Cmax in guinea pig at 1 mg/kg, iv by LC-MS/MS analysis; type: ADME, organism-based, Cavia porcellus; set-up: dose 1 mg/kg, route intravenous; details: in vivo
[6] = Tmax in guinea pig at 1 mg/kg, iv by LC-MS/MS analysis; type: ADME, organism-based, Cavia porcellus; details: in vivo
[7] = Half-life in guinea pig at 1 mg/kg, iv by LC-MS/MS analysis; type: ADME, organism-based, Cavia porcellus; details: in vivo
[8] = Volume of distribution in guinea pig at 1 mg/kg, iv by LC-MS/MS analysis; type: ADME, organism-based, Cavia porcellus; details: in vivo
[9] = Clearance in guinea pig at 1 mg/kg, iv by LC-MS/MS analysis; type: ADME, organism-based, Cavia porcellus; details: in vivo
[10] = AUC (0 to infinity) in guinea pig at 1 mg/kg, iv by LC-MS/MS analysis; type: ADME, organism-based, Cavia porcellus; set-up: dose 1 mg/kg, route intravenous, time infinity; details: in vivo
Cavia porcellus [11] = assay: Cmax in guinea pig at 10 mg/kg, po by LC-MS/MS analysis; type: ADME, organism-based; set-up: dose 10 mg/kg, route oral; details: in vivo
Cavia porcellus [12] = assay: Half-life in guinea pig at 10 mg/kg, po by LC-MS/MS analysis; type: ADME, organism-based; details: in vivo
Cavia porcellus [13] = assay: AUC (0 to infinity) in guinea pig at 10 mg/kg, po by LC-MS/MS analysis; type: ADME, organism-based; set-up: dose 10 mg/kg, time infinity, route oral; details: in vivo
Cavia porcellus [14] = assay: Oral bioavailability in guinea pig at 10 mg/kg by LC-MS/MS analysis; type: ADME, organism-based; details: in vivo

IC50 [1]: 5 nM
SMILES: O=S(=O)(C(F)F)N1CCN(c2ccc(/C=C/c3cc(F)cc(-c4ccncc4)c3)cc2)CC1

IC50 [1]: 1 nM
SMILES: O=S(=O)(C1CC1)N1CCN(c2ccc(/C=C/c3cc(F)cc(-c4ccncc4)c3)cc2)CC1

Ratio IC50 (Homo sapiens [3]): 49
Ratio IC50 (Homo sapiens [4]): 2000
half-life [2]: 1 h
Cmax [5]: 852 ng/mL
Tmax [6]: 0.15 h
half-life [7]: 5.7 h
Vd [8]: 4.05 L/kg
clearance [9]: 8.79 mL/min/kg
AUC(0-inf) [10]: 2000 ng·h/mL
Cmax (Cavia porcellus [11]): 540 ng/mL
t1/2 (Cavia porcellus [12]): 4.8 h
AUC (Cavia porcellus [13]): 4190 ng·h/mL
SMILES: CCS(=O)(=O)N1CCN(c2ccc(/C=C/c3cc(F)cc(-c4ccncc4)c3)cc2)CC1

Ratio IC50 (Homo sapiens [3]): 151
Ratio IC50 (Homo sapiens [4]): 2170
half-life [2]: 1 h
Cmax [5]: 132 ng/mL
Tmax [6]: 0.1 h
half-life [7]: 6 h
Vd [8]: 14.8 L/kg
clearance [9]: 28.5 mL/min/kg
AUC(0-inf) [10]: 586 ng·h/mL
Cmax (Cavia porcellus [11]): 1018 ng/mL
t1/2 (Cavia porcellus [12]): 6 h
AUC (Cavia porcellus [13]): 14890 ng·h/mL
F (Cavia porcellus [14]): 184.2%
SMILES: CC(=O)N1CCN(c2ccc(/C=C/c3cc(F)cc(-c4ccncc4)c3)cc2)CC1

IC50 [1]: 2 nM
Ratio IC50 (Homo sapiens [3]): 1560
Ratio IC50 (Homo sapiens [4]): 167
half-life [2]: 1 h
Cmax [5]: 203 ng/mL
Tmax [6]: 0.2 h
half-life [7]: 5 h
Vd [8]: 9.1 L/kg
clearance [9]: 20.9 mL/min/kg
AUC(0-inf) [10]: 815 ng·h/mL
Cmax (Cavia porcellus [11]): 271 ng/mL
t1/2 (Cavia porcellus [12]): 5.25 h
AUC (Cavia porcellus [13]): 2452 ng·h/mL
SMILES: O=S(=O)(N1CCN(c2ccc(/C=C/c3cc(F)cc(-c4ccncc4)c3)cc2)CC1)C(F)(F)F

Continued, compound first:

SMILES: O=S(=O)(C(F)F)N1CCN(c2ccc(/C=C/c3cc(Cl)cc(-c4ccncc4)c3)cc2)CC1
IC50 [1]: 5 nM

SMILES: CC(=O)N1CCN(c2ccc(OCC3COC(Cn4ccnc4)(c4ccc(Cl)cc4Cl)O3)cc2)CC1 (stereo unspecified) [KETOCONAZOLE]
half-life [2]: 0.667 h

SMILES: O=S(=O)(C(F)F)N1CCN(c2ccc(/C=C/c3cc(F)cc(Cn4ccnc4)c3)cc2)CC1
IC50 [1]: 5 nM

SMILES: N#CCS(=O)(=O)N1CCN(c2ccc(/C=C/c3cc(Cl)cc(-c4ccncc4)c3)cc2)CC1
IC50 [1]: 6 nM

SMILES: N=C(N)N1CCN(c2ccc(/C=C/c3cc(Cl)cc(-c4ccncc4)c3)cc2)CC1
IC50 [1]: 17 nM

SMILES: O=S(=O)(C1CC1)N1CCN(c2ccc(/C=C/c3cc(F)cc(Cn4ccnc4)c3)cc2)CC1
IC50 [1]: 34 nM
